This note sets out measurements from US20230139171A1 (SITA Information Networking Computing UK Limited, priority 2019, published 2023).

What all share (type): cell-based
One test concerns the target T1, human TLR7 (Homo sapiens, UniProt Q9NYK1).
T1 construct: host or cells: HEK-Blue cells
T1 sequence (Q9NYK1 27-1049): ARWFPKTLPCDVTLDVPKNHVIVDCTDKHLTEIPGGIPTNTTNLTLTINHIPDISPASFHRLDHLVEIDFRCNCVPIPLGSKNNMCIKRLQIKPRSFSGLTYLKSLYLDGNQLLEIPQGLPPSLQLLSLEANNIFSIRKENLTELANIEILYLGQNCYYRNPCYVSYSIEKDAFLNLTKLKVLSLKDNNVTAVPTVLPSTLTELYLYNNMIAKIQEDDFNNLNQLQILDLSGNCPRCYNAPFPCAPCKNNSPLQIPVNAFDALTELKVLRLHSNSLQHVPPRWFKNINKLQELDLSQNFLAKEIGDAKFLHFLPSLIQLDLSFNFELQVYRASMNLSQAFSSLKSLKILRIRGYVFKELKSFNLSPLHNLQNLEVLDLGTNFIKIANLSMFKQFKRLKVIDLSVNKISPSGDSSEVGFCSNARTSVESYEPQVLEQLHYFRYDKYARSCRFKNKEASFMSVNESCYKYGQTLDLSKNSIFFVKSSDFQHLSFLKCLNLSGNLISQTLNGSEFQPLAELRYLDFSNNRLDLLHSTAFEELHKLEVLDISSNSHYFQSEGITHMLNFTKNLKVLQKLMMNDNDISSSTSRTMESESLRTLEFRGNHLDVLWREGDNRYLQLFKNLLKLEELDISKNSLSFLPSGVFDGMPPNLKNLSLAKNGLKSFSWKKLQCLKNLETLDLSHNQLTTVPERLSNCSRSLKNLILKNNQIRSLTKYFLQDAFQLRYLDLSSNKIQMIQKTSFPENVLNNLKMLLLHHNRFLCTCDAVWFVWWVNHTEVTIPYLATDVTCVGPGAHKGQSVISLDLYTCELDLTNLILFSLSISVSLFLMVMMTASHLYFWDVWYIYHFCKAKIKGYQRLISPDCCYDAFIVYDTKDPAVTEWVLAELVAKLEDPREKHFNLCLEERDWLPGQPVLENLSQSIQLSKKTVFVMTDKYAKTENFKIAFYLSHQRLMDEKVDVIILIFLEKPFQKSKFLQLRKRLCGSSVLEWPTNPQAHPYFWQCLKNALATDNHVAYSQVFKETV
Description: TLR7 inhibition reporter assay (HEK-Blue cells, SEAP reporter, gardiquimod stimulation). Conditions: HEK-Blue cells overexpressing human TLR7, SEAP reporter, gardiquimod 7.5 μM; read-out: TLR7 IC50. The procedure, abridged: (§1)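 HEK-Blue cells overexpressing human TLR7, TLR8 or TLR9 carry a SEAP reporter driven by NF-κB/AP-1 sites. Compounds (0.05 nM–50 μM) were preincubated 30 min at room temperature, then cells were stimulated with gardiquimod 7.5 μM (TLR7), R848 15.9 μM (TLR8) or ODN2006 5 nM (TLR9) for 22 h at 37 °C.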

In a further test the target is T2, human TLR8 (Homo sapiens, UniProt Q9NR97).
T2 construct: host or cells: HEK-Blue cells
T2 sequence (Q9NR97 27-1041): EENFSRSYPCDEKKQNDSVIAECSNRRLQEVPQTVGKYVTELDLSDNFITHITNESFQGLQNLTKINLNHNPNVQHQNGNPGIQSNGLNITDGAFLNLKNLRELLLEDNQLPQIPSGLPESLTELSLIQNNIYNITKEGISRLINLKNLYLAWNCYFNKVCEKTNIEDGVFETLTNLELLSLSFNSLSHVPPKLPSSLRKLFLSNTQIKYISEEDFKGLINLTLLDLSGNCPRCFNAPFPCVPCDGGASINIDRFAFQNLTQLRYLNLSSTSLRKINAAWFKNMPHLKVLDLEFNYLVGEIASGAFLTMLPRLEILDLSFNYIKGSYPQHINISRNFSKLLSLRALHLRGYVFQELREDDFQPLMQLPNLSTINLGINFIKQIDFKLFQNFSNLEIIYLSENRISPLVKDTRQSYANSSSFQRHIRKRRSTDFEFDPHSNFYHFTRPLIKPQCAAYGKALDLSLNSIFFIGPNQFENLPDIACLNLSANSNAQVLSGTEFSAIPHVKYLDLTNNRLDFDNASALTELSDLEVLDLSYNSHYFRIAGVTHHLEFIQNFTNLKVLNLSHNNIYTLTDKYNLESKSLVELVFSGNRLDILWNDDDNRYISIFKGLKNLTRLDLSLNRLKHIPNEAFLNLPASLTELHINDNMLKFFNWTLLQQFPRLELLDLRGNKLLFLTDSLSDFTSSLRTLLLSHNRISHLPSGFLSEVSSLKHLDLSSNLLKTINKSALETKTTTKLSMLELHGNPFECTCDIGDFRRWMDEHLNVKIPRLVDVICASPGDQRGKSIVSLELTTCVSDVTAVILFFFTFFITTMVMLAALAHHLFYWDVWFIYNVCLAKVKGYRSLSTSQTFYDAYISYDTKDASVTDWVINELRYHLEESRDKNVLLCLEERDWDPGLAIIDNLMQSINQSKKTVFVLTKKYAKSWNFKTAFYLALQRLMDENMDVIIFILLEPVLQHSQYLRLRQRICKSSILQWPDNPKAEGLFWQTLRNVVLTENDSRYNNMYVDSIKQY
Description: TLR8 inhibition reporter assay (HEK-Blue cells, SEAP reporter, R848 stimulation). Conditions: HEK-Blue cells overexpressing human TLR8, SEAP reporter, R848 15.9 μM; read-out: TLR8 IC50. The procedure, abridged: as §1
In general terms: A reporter such as luciferase makes a cellular process visible.

For another test, the target named is T3, human TLR9 (Homo sapiens, UniProt Q9NR96).
T3 construct: host or cells: HEK-Blue cells
T3 sequence (Q9NR96 26-1032): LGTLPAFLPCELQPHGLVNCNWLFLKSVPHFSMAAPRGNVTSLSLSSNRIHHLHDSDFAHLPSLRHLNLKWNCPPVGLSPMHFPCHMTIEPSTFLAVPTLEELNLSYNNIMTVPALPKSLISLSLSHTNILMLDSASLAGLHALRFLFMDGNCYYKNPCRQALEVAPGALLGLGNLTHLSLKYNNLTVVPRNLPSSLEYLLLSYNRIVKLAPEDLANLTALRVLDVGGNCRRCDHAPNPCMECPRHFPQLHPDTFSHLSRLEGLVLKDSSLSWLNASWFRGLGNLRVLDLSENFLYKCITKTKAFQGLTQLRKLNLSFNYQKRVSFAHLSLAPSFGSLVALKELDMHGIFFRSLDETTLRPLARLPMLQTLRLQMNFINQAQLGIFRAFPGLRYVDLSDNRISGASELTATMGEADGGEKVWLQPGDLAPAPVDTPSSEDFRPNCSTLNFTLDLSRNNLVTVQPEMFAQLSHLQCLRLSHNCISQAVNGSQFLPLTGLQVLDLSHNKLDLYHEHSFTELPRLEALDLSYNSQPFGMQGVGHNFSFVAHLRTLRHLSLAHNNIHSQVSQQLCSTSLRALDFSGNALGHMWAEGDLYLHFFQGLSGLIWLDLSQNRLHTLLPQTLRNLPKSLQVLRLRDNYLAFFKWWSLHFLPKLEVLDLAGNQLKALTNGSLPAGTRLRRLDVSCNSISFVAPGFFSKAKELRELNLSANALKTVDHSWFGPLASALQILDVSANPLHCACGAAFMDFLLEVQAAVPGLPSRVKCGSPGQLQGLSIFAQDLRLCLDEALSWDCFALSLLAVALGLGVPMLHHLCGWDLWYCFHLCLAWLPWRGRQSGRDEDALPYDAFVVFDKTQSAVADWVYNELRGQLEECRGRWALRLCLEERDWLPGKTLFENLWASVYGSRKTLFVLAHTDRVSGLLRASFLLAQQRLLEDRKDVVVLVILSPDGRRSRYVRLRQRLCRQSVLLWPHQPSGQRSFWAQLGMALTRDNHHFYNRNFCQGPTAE
Put plainly: TLR9 inhibition reporter assay (HEK-Blue cells, SEAP reporter, ODN2006 stimulation). Conditions: HEK-Blue cells overexpressing human TLR9, SEAP reporter, ODN2006 5 nM. The procedure, abridged:
as §1

As for `Cc1c(-c2[nH]c3sc(N4C[C@@H](C)N(C5CCOCC5)C[C@@H]4C)nc3c2C(C)C)cn2ncnc2c1C` [Example 329, 2-((2S,5R)-2,5-dimethyl-4-(tetrahydro-2H-pyran-4-yl)piperazin-1-yl)-5-(7,8-dimethyl-[1,2,4]triazolo[1,5-a]pyridin-6-yl)-6-isopropyl-4H-pyrrolo[3,2-d]thiazole], the half-maximal inhibitory concentration (IC50) came out at 414 nM on human TLR7, 60.3 nM on human TLR8 and 14.7 µM at human TLR9.

For the molecule `Cc1c(-c2[nH]c3sc(N4C[C@@H](C)N(C(C)C)C[C@@H]4C)nc3c2C(C)C)cn2ncnc2c1C` [Example 330, 5-(7,8-dimethyl-[1,2,4]triazolo[1,5-a]pyridin-6-yl)-6-isopropyl-2-((2S,5R)-4-isopropyl-2,5-dimethylpiperazin-1-yl)-4H-pyrrolo[3,2-d] thiazole], the IC50 at human TLR7 is 8.34 nM; on human TLR8 it was 1.5 nM; against human TLR9 it was 11.4 µM.

Take `CCN1C[C@H](C)N(c2nc3c(C(C)C)c(-c4cn5ncnc5c(C)c4C)[nH]c3s2)C[C@H]1C` [Example 331, 5-(7,8-dimethyl-[1,2,4]triazolo[1,5-a]pyridin-6-yl)-2-((2S,5R)-4-ethyl-2,5-dimethylpiperazin-1-yl)-6-isopropyl-4H-pyrrolo[3,2-d]thiazole]: the figures for the IC50 on human TLR7, on human TLR8 and on human TLR9 were 4.29 nM, 0.49 nM and 6.31 µM, respectively.

`Cc1c(-c2[nH]c3sc(N4C[C@@H](C)N(CC5CC5)C[C@@H]4C)nc3c2C(C)C)cn2ncnc2c1C` [Example 332, 2-((2S,5R)-4-(cyclopropylmethyl)-2,5-dimethylpiperazin-1-yl)-5-(7,8-dimethyl-[1,2,4]triazolo[1,5-a]pyridin-6-yl)-6-isopropyl-4H-pyrrolo[3,2-d]thiazole]: the IC50 on human TLR7 was found to be 16.9 nM; on human TLR8 it was 1.91 nM; against human TLR9, 10.2 µM.

For `Cc1c(-c2[nH]c3sc(N4C[C@@H](C)N(C5CCC5)C[C@@H]4C)nc3c2C(C)C)cn2ncnc2c1C` [Example 333, 2-((2S,5R)-4-cyclobutyl-2,5-dimethylpiperazin-1-yl)-5-(7,8-dimethyl-[1,2,4]triazolo[1,5-a]pyridin-6-yl)-6-isopropyl-4H-pyrrolo[3,2-d]thiazole], the values for the IC50 at human TLR7, on human TLR8 and on human TLR9 were 34.9 nM, 2.19 nM and 37.4 µM, respectively.

Turning to `Cc1c(-c2[nH]c3sc(N4C[C@@H](C)N(C(C)C)C[C@@H]4C)nc3c2C(C)C)cn2ncnc2c1C` [Example 334, 5-(7,8-dimethyl-[1,2,4]triazolo[1,5-a]pyridin-6-yl)-6-isopropyl-2-((2S,5R)-4-isopropyl-2,5-dimethylpiperazin-1-yl)-4H-pyrrolo[3,2-d]thiazole], the IC50 at human TLR7 is 13.6 nM; on human TLR8, 3.19 nM; against human TLR9, 4.83 µM.

Regarding `CNC(=O)CN1C[C@H](C)N(c2nc3c(C(C)C)c(-c4cn5ncnc5c(C)c4C)[nH]c3s2)C[C@H]1C` [Example 336, 2-((2R,5S)-4-(5-(7,8-dimethyl-[1,2,4]triazolo[1,5-a]pyridin-6-yl)-6-isopropyl-4H-pyrrolo[3,2-d]thiazol-2-yl)-2,5-dimethylpiperazin-1-yl)-N-methylacetamide], the figures for the half-maximal inhibitory concentration (IC50) on human TLR7, on human TLR8 and on human TLR9 were 13.5 nM, 39.7 nM and 38.1 µM, respectively.

Turning to `Cc1c(-c2[nH]c3sc(N4C[C@@H](C)N(CCS(C)(=O)=O)C[C@@H]4C)nc3c2C(C)C)cn2ncnc2c1C` [Example 337, 2-((2S,5R)-2,5-dimethyl-4-(2-(methylsulfonyl)ethyl)piperazin-1-yl)-5-(7,8-dimethyl-[1,2,4]triazolo[1,5-a]pyridin-6-yl)-6-isopropyl-4H-pyrrolo[3,2-d]thiazole], the IC50 at human TLR7 turned out to be 8.27 nM; on human TLR8, 7.61 nM; against human TLR9, 42.4 µM.

Consider `Cc1c(-c2[nH]c3sc(N4C[C@@H](C)N(CC(N)=O)C[C@@H]4C)nc3c2C(C)C)cn2ncnc2c1C` [Example 338, 2-((2R,5S)-4-(5-(7,8-dimethyl-[1,2,4]triazolo[1,5-a]pyridin-6-yl)-6-isopropyl-4H-pyrrolo[3,2-d]thiazol-2-yl)-2,5-dimethylpiperazin-1-yl)acetamide], for which the IC50 is 10.1 nM at human TLR7, 31.1 nM on human TLR8 and 45.6 µM on human TLR9.

`Cc1c(-c2[nH]c3sc(N4C[C@@H](C)N(CC(C)(C)O)C[C@@H]4C)nc3c2C(C)C)cn2ncnc2c1C` [Example 339, 1-((2R,5S)-4-(5-(7,8-dimethyl-[1,2,4]triazolo[1,5-a]pyridin-6-yl)-6-isopropyl-4H-pyrrolo[3,2-d]thiazol-2-yl)-2,5-dimethylpiperazin-1-yl)-2-methylpropan-2-ol]: the half-inhibitory concentration (IC50) at human TLR7 stood at 19.9 nM; at human TLR8, 3.86 nM; on human TLR9, 36.6 µM.

As usually defined, the IC50 is the point on the concentration scale where inhibition reaches its midpoint.
